Source: patent US8030345B2, “Tricyclic pyrazole derivatives as cannabinoid receptor modulators” (Cadila Healthcare Limited, priority 2004, dated 2011)

system: rat; assay: Intake of 5% sucrose solution in rat model; format: in vivo; settings: intake of 5% sucrose solution in animal model (rat)
From the text: Compounds of the present invention in the cAMP accumulation model, antagonizes the WIN-55, 212-2 inhibition of forskolin-induced cAMP accumulation in hCB1-CHO cells [J Pharmacol. Exp Ther., 1998, 284, 291-297]. In a mouse vas deferens preparation, representative compounds cause rightward shift of the WIN-55, 212-2 concentration-response curve (Eur. J. Pharm. 1995, 284, 241-247). Representative compounds of the present invention have shown decrease in sucrose solution intake in rat model (Table 1) [Psychopharmacology, 1997, 132, 104-106].

| SMILES | Reduction in sucrose solution consumption w.r.t. control animals |
| --- | --- |
| O=C(NN1CC2CCCC2C1)c1nn(-c2ccc(Cl)cc2Cl)c2c1CCOc1cc(Cl)ccc1-2 (centres unmarked) [Compound 5, 8-chloro-1-(2,4-dichloro-phenyl)-4,5-dihydro-1H-6-oxa-1,2-diaza-benzo [e] azulene-3-carboxylic acid (hexahydro-cyclopenta[c]pyrrol-2-yl)-amide] | −23.2 ± 11.4 |
| O=C(NN1CCCCC1)c1nn(-c2ccc(Cl)cc2)c2c1CCOc1cc(Cl)ccc1-2 [Compound 8, 8-chloro-1-(4-chloro-phenyl)-4,5-dihydro-1H-6-oxa-1,2-diaza-benzo [e] azulene-3-carboxylic acid piperidin-1-ylamide] | −30.4 ± 4.3 |
| O=C(NN1CCCCC1)c1nn(-c2ccc(Cl)cc2Cl)c2c1CCCc1sc(Cl)cc1-2 [Compound 16] | −13.2 ± 15.7 |
| O=C(NN1CCOCC1)c1nn(-c2ccc(Cl)cc2Cl)c2c1CCOc1cc(Cl)ccc1-2 [Compound 6, 8-chloro-1-(2,4-dichloro-phenyl)-4,5-dihydro-1H-6-oxa-1,2-diaza-benzo [e] azulene-3-carboxylic acid morpholine-4-yl-amide] | −24.9 ± 8.9 |
| O=C(NN1CCC(O)CC1)c1nn(-c2ccc(Cl)cc2Cl)c2c1CCOc1cc(Cl)ccc1-2 [Compound 3] | −18.9 ± 14.0 |
